Measurements: patent US20090304813A1, “VIRUCIDAL COMPOSITIONS AND USES” (priority 2006, published 2009)

Columns and labels:
[1] = Tox controls of the oral treatment study in mice (Table 3); settings: 75 mg/kg/day p.o., bid × 5 beg −4 h; initial weight vs 18 h after final treatment
[2] = tested on: Influenza A/Duck/MN/1525/81 (H5N1); set-up: species or system BALB/c mice; settings: mouse, in vivo

| SMILES | Tox Controls Mean Host Weight Change [1] | Number of surviving mice per group at day 19 [2] | surviving mice per group at day 19, percent [2] |
| --- | --- | --- | --- |
| NC(=O)c1ncn([C@@H]2O[C@H](CO)[C@@H](O)[C@H]2O)n1 [Ribavirin] | -0.8 g |  |  |
| CCOC(=O)C1=C[C@@H](OC(CC)CC)[C@H](NC(C)=O)[C@@H](N)C1 [Tamiflu ™, oseltamivir phosphate] |  | 10/10 [100%] | 10/10 [100%] |
